Source: PubChem BioAssay (NCI)
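Cells were grown in 96-well plates and exposed to each compound for 48 hours at five concentrations; endpoints were interpolated linearly between bracketing concentrations, or set to the highest concentration if not reached. Abbreviation: GI50, concentration required for 50% inhibition of growth. TGI is the concentration that stops growth completely.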

Tests used:
Experiment in all cases: DTP human tumour cell line panel, 48 h
MDA-MB-435 = test system: MDA-MB-435
SF-539 CNS = test system: SF-539 CNS
CAKI-1 renal = test system: CAKI-1 renal
OVCAR-3 ovarian = test system: OVCAR-3 ovarian
UACC-62 melanoma = test system: UACC-62 melanoma
MCF7 breast = test system: MCF7 breast
SW-620 colon = test system: SW-620 colon
OVCAR-4 ovarian = test system: OVCAR-4 ovarian
SNB-75 CNS = test system: SNB-75 CNS
SNB-78 CNS = test system: SNB-78 CNS
DMS 273 small cell lung = test system: DMS 273 small cell lung

SMILES | TGI (MDA-MB-435) [µM] | TGI (SF-539 CNS) [µM] | TGI (CAKI-1 renal) [µM] | TGI (OVCAR-3 ovarian) [µM] | TGI (UACC-62 melanoma) [µM] | TGI (MCF7 breast) [µM] | TGI (SW-620 colon) [µM] | TGI (OVCAR-4 ovarian) [µM] | TGI (SNB-75 CNS) [µM] | GI50 (MCF7 breast) [µM] | GI50 (SNB-75 CNS) [µM] | TGI (SNB-78 CNS) [µM] | TGI (DMS 273 small cell lung) [µM] | GI50 (MDA-MB-435) [µM] | GI50 (SF-539 CNS) [µM] | GI50 (CAKI-1 renal) [µM] | GI50 (OVCAR-3 ovarian) [µM] | GI50 (UACC-62 melanoma) [µM] | GI50 (SW-620 colon) [µM] | GI50 (OVCAR-4 ovarian) [µM]
CN=C(N)/N=C(\N)Nc1cc2ccccc2c2ccccc12 | 32.4 | 29.4 | 31.2 | 35.8 | 28.2 | 26.1 | 34 | 33.6 | 27.6 | – | – | – | – | – | – | – | – | – | – | –
COc1cc(NC(=O)CSc2nc3ccccc3c(=O)n2CCc2ccccc2)cc(OC)c1OC | – | – | – | – | – | > 100 | – | – | 11 | 4.44 | 2.23 | – | – | – | – | – | – | – | – | –
CC(=O)N1CC(=O)NC1=S | – | > 100 | > 100 | > 100 | > 100 | – | > 100 | > 100 | > 100 | – | – | > 100 | > 100 | – | – | – | – | – | – | –
O=C(Nc1cccc([N+](=O)[O-])c1)C(=O)C(C(=O)c1ccccc1F)C1OC(=O)C2C=CC=CC21 (stereo not given) | – | 67.5 | > 100 | – | > 100 | – | > 100 | > 100 | 84.9 | – | – | > 100 | > 100 | – | – | – | – | – | – | –
C/C=C1/CN2CCC34c5ccccc5N(C)C23C2CC1C4(C(=O)OC)C(O)O2 (stereo not given) | > 100 | > 100 | > 100 | > 100 | > 100 | > 100 | > 100 | > 100 | > 100 | – | – | – | – | – | – | – | – | – | – | –
COc1c(O)c(O)c2c(c1O)C(=O)c1cc(C)cc(O)c1C2=O | > 100 | > 100 | > 100 | > 100 | 54.5 | > 100 | > 100 | > 89.1 | > 86.5 | – | – | – | – | – | – | – | – | – | – | –
N#CCCOCN(CO)c1nc(N(CO)COCCC#N)nc(N(CO)COCCC#N)n1 | – | 8.63 | – | 59.3 | – | – | 29.5 | 64 | – | – | – | > 100 | 32.8 | – | – | – | – | – | – | –
c1ccc(CCN2CCOCC2)nc1 | > 100 | – | > 100 | > 100 | > 100 | > 100 | > 100 | > 100 | – | – | – | – | – | – | – | – | – | – | – | –
Nc1cccc2c1C1=NNC(=O)CC1C2 (stereo not given) | – | > 100 | > 100 | > 100 | > 100 | > 100 | > 100 | > 100 | > 100 | – | – | > 100 | > 100 | – | – | – | – | – | – | –
O=C(NCCNc1nccc(-c2c(-c3cccc(O)c3)nc3sccn23)n1)Nc1cccc(C(F)(F)F)c1 | 4.94 | 36.9 | 50.5 | 22.7 | 6.51 | 16 | 13.4 | 14.2 | 12.7 | 3.57 | 2.5 | – | – | 2.04 | 13.1 | 14.2 | 5.52 | 1.94 | 3.84 | 3.97
Cc1c2cc[n+](C)cc2c(C)c2c1[nH]c1ccc(Cl)cc12 | > 64.4 | 2.32 | 53.4 | 22.6 | 45.1 | 15.9 | 19.4 | 26.5 | 1.05 | – | – | 2.56 | 35.7 | – | – | – | – | – | – | –
CCOC(=O)C(=O)Nc1c(CC)cccc1C(C)CC (stereo not given) | – | > 100 | > 100 | > 100 | > 100 | – | > 100 | > 100 | > 100 | – | – | > 100 | > 100 | – | – | – | – | – | – | –
C=Cc1cc(OC)c2c(c1)c(=O)oc1c2cc(OC)c2c(O)ccc(C3OC(C)C(O)C(C)(O)C3O)c21 (stereo not given) | 0.00365 | – | 0.0916 | – | – | 0.36 | – | – | – | 3.58e-05 | 0.00041 | – | 0.139 | – | 0.000153 | 0.00224 | 0.00181 | 0.0012 | 0.000502 | 0.00215
CNS(=O)(=O)c1ccc2[nH]c(O)c(C3=Nc4ccccc4C3=O)c2c1 | > 100 | – | > 100 | > 100 | > 100 | – | > 100 | – | > 100 | – | – | – | – | – | – | – | – | – | – | –
NC(=O)Nc1ccc(C(=O)NCCCNC(=O)c2ccc(NC(N)=O)cc2)cc1 | > 100 | > 100 | > 100 | – | > 100 | > 100 | > 100 | > 100 | > 100 | – | – | – | – | – | – | – | – | – | – | –
